In one assay the test system is LCMV. As to the kind of experiment: microbe, parasite or virus in culture. The class given is cell-based, lymphocytic choriomeningitis virus (LCMV).
The subject of assay [1] is Lassa virus (LF2384 strain). The assay can be described thus: microbe, parasite or virus in culture. The settings on record: Mammarenavirus lassaense, Vero, 72 h, read-out: Log10 of IC90 (nM) (converted). The class given is cell-based.
The test system of another assay is Junin virus. The assay can be described thus: microbe, parasite or virus in culture. Format: cell-based.
Assay [2] relates to Lassa virus (Josiah strain). Format: cell-based.
Setting [3] is: Mammarenavirus choriomeningitidis, KB, 96 h.
Where [4] appears, read: Mammarenavirus juninense, HEK-293T, 96 h.

SMILES strings stand for the structures. Values joined by “and” are separate entries in the source; they are usually repeats but may differ in a detail not shown here. Equal values may be shown once. Read-outs that look alike come from different tables or passages of the source.

Experimental findings from patent publication US12098151B2 (priority 2018, dated 2024) are described below.

By EC50 is commonly meant the concentration giving half of the maximal effect. Higher therefore signals a less potent agent. The term IC90 denotes the concentration needed for an effect of 90%. Turning to `O=C(O)c1cn2c(c(O)c1=O)C(=O)N(CC1CC1)CN2C1c2ccccc2CCc2ccccc21` [II-003], the EC50 with LCMV (setting [3]) is 8 nM; with Junin virus (setting [4]), 6.7 nM. Besides, the IC90 in assay [1] is 2.53 nM.
`NC(=O)c1ncn([C@@H]2O[C@H](CO)[C@@H](O)[C@H]2O)n1` [Ribavirin, reference compound]: the “Virus infectivity titer (48 h.p.i., PFU/ml)” value in assay [2] is 9 × 10^4 PFU/ml and 6 × 10^6 PFU/ml and 5 × 10^6 PFU/ml.
In turn, `CC(C)N1CN(C2c3ccccc3CCc3ccccc32)n2cc(C(=O)O)c(=O)c(O)c2C1=O` [Compound I-021] displayed an EC50 with LCMV (setting [3]) of 2 nM. Further, the IC90 in assay [1] is 3.1 nM. The same compound showed an EC50 with Junin virus (setting [4]) of 8.2 nM. For the same compound, in assay [2], the “Lassa virus proliferation inhibitory effect compared with control compound Ribavirin” value is recorded as “significantly stronger Lassa virus proliferation inhibitory effect than the control compound Ribavirin”; the “Virus infectivity titer (24 h.p.i., PFU/ml)” value was 5 × 10^4 PFU/ml and <10 PFU/ml; the “Virus infectivity titer (48 h.p.i., PFU/ml)” value is 5 × 10^6 PFU/ml and 5 × 10^3 PFU/ml.
Regarding `O=C(O)c1cn2c(c(O)c1=O)C(=O)N(Cc1ccccn1)C[C@@H]2C(c1ccccc1)c1ccccc1` [Compound I-025], the 50% effective concentration (EC50) in the assay with LCMV (setting [3]) was determined as 5 nM; with Junin virus (setting [4]), 13 nM.
For `O=C(O)c1cn2c(c(O)c1=O)C(=O)N(CC1CCC1)CN2C1c2cccc(F)c2CCc2c(F)cccc21` [III-035] the same measures were 7.2 nM and 9.6 nM.
The matching figures for `O=C(O)c1cn2c(c(O)c1=O)C(=O)N(C(C1CC1)C1CC1)CN2C1c2cccc(F)c2CCc2c(F)cccc21` [III-036]: 6.3 nM and 5.1 nM.
Turning to `O=C(O)c1cn2c(c(O)c1=O)C(=O)N1CCCCN1C2C(c1ccccc1)c1ccccc1` (centres unmarked) [Compound I-043], the 50% effective concentration (EC50) was determined as 119 nM in the assay on LCMV (setting [3]) and 281 nM with Junin virus (setting [4]).
For `O=C(O)c1cn2c(c(O)c1=O)C(=O)N(CC1CCOCC1)CN2C1c2ccccc2CCc2ccccc21` [III-007] the same measures were 14 nM and 16 nM.
For `CCN1CN(C2c3ccccc3CCc3ccccc32)n2nc(C(=O)O)c(=O)c(O)c2C1=O` [III-019] the same measures were 39 nM and 72 nM.
The matching figures for `O=C(O)c1cn2c(c(O)c1=O)C(=O)N(CC1CC1)CN2C(c1cccc(-c2ccccc2)c1)c1cccc(-c2ccccc2)c1` [III-030]: 78 nM and 18 nM.
For the compound `O=C(O)c1cn2c(c(O)c1=O)C(=O)N(Cc1ccc(F)cc1F)C[C@@H]2C(c1ccccc1)c1ccccc1` [Compound I-020], the EC50 with LCMV (setting [3]) was determined as 5.9 nM; in the assay on Junin virus (setting [4]) it was 7.1 nM.
For `CCN1CN(C(c2ccccc2)c2ccccc2)n2cc(C(=O)O)c(=O)c(O)c2C1=O` [Compound I-005] the same measures were 53 nM and 28 nM.
For `Cc1cccc2c1CCc1c(C)cccc1C2N1CN(C(C)C)C(=O)c2c(O)c(=O)c(C(=O)O)cn21` [Compound I-075] the same measures were 3.1 nM and 1.7 nM.
As to `CC(C)N1CN(Cc2ccccc2-c2ccccc2)n2cc(C(=O)O)c(=O)c(O)c2C1=O` [Compound I-080], the EC50 turned out to be 499 nM with LCMV (setting [3]) and 437 nM in the assay on Junin virus (setting [4]).
For `CN1CN(C(c2ccccc2)c2ccccc2)n2cc(C(=O)O)c(=O)c(O)c2C1=O` [Compound I-008], the EC50 in the assay on LCMV (setting [3]) was 205 nM; in the assay with Junin virus (setting [4]), 239 nM.
As for `CN1CN(C2c3ccccc3CCc3ccccc32)n2cc(C(=O)O)c(=O)c(O)c2C1=O` [II-004], the EC50 with LCMV (setting [3]) was found to be 24 nM; in the assay on Junin virus (setting [4]) it was 9.2 nM.
Turning to `O=C(O)c1cn2c(c(O)c1=O)C(=O)N(CC1CC1)CN2C(c1ccccc1)c1ccccc1` [III-027], the results for the half-maximal effective concentration (EC50) in the assay on LCMV (setting [3]) and in the assay on Junin virus (setting [4]) were 19 nM and 13 nM, respectively.
As for `O=C(O)c1cn2c(c(O)c1=O)C(=O)N(CC1CCCCO1)C[C@@H]2C(c1ccccc1)c1ccccc1` (some centres unmarked) [Compound I-026], the values for the EC50 in the assay with LCMV (setting [3]) and in the assay with Junin virus (setting [4]) were 6.9 nM and 17 nM, respectively.
Regarding `CC(C)N1CN(C2c3cc(F)c(F)cc3CCc3cc(F)c(F)cc32)n2cc(C(=O)O)c(=O)c(O)c2C1=O` [Compound I-074], the EC50 in the assay on LCMV (setting [3]) was found to be 48 nM; with Junin virus (setting [4]), 50 nM.
As for `O=C(O)c1cn2c(c(O)c1=O)C(=O)N(CC1CC1)CN2C1c2ccccc2CSc2ccccc21` (centres unmarked) [III-013], the values for the EC50 in the assay with LCMV and with Junin virus were 3.3 nM and 3.7 nM, respectively.
With `O=C(O)c1cn2c(c(O)c1=O)C(=O)N(CC(F)(F)F)C[C@@H]2C(c1ccccc1)c1ccccc1` [Compound I-049], the figures for the EC50 with LCMV (setting [3]) and in the assay on Junin virus (setting [4]) were 160 nM and 620 nM, respectively.
For `CC(C)N1CN(C2c3ccc(F)cc3CCc3cc(F)ccc32)n2cc(C(=O)O)c(=O)c(O)c2C1=O` [III-023] the same measures were 14 nM and 17 nM.
As to `Cc1ccc2c(c1)C(N1CN(C(C)C)C(=O)c3c(O)c(=O)c(C(=O)O)cn31)c1cc(C)ccc1CC2` [III-024], the values for the 50% effective concentration (EC50) with LCMV (setting [3]) and in the assay with Junin virus (setting [4]) were 83 nM and greater than 200 nM, respectively.
For `CC(C)N1CN(C2c3ccccc3Oc3ccccc32)n2cc(C(=O)O)c(=O)c(O)c2C1=O` [III-001], the EC50 with LCMV (setting [3]) is 19 nM; with Junin virus (setting [4]), 110 nM.
As for `COCCN1C(=O)c2c(O)c(=O)c(C(=O)O)cn2C[C@H]1C(c1ccccc1)c1ccccc1` [Compound I-036], the EC50 in the assay with LCMV (setting [3]) worked out at 69 nM; in the assay with Junin virus (setting [4]), 74 nM.
For `Cc1cccc2c1CCc1c(C)cccc1C2N1CN(CC2CCC2)C(=O)c2c(O)c(=O)c(C(=O)O)cn21` [III-033] the same measures were 8.8 nM and 6.4 nM.
For `CCN1CN(C2c3ccccc3CCc3ccccc32)n2cc(C(=O)O)c(=O)c(O)c2C1=O` [Compound I-078], the EC50 in the assay with LCMV (setting [3]) stood at 6.2 nM; with Junin virus (setting [4]) it was 3.3 nM. Moreover, the IC90 in assay [1] was 3.14 nM.
In the case of `CCOCCN1C[C@H](C(c2ccccc2)c2ccccc2)n2cc(C(=O)O)c(=O)c(O)c2C1=O` [Compound I-038], the figures for the EC50 with LCMV (setting [3]) and in the assay with Junin virus (setting [4]) were 28 nM and 148 nM, respectively.
For `O=C(O)c1cn2c(c(O)c1=O)C(=O)N(Cc1ccc(F)cc1F)CN2C1c2ccccc2CCc2ccccc21` [Compound I-081] the same measures were 24 nM and 6.1 nM.
For `C#CCN1C[C@H](C(c2ccccc2)c2ccccc2)n2cc(C(=O)O)c(=O)c(O)c2C1=O` [Compound I-040] the same measures were 44 nM and 173 nM.
`O=C(O)c1cn2c(c(O)c1=O)C(=O)N(CC1CCC1)CN2C1c2ccccc2CCc2ccccc21` [III-016]: the concentration giving a half-maximal response (EC50) in the assay with LCMV (setting [3]) was found to be 7.3 nM; in the assay on Junin virus (setting [4]), 12 nM.
For `CON(C)C(=O)c1cn2c(c(O)c1=O)C(=O)N(C(C)C)CN2C1c2ccccc2CCc2ccccc21` [III-004] the same measures were 27 nM and 21 nM.
Turning to `O=C(O)c1cn2c(c(O)c1=O)C(=O)NC[C@@H]2C(c1ccccc1)c1ccccc1` [Compound I-053], the EC50 in the assay with LCMV (setting [3]) was found to be 275 nM; in the assay on Junin virus (setting [4]) it was 987 nM.
In the case of `O=C(O)c1cn2c(c(O)c1=O)C(=O)N(C(C1CC1)C1CC1)CN2C1c2ccccc2CSc2ccccc21` (centres unmarked) [III-029], the EC50 is 63 nM in the assay with LCMV and 182 nM in the assay on Junin virus.
The matching figures for `COCCN1C[C@H](C(c2ccccc2)c2ccccc2)n2cc(C(=O)O)c(=O)c(O)c2C1=O` [Compound I-045]: 24 nM and 374 nM.
As to `CC(C)N1CN(C2c3ccccc3CCc3ccccc32)n2cc(C(N)=O)c(=O)c(O)c2C1=O` [III-003], the figures for the EC50 in the assay on LCMV (setting [3]) and in the assay with Junin virus (setting [4]) were 676 nM and 302 nM, respectively.
For `O=C(O)c1cn2c(c(O)c1=O)C(=O)N(CC1CCCCC1)CN2C1c2ccccc2CCc2ccccc21` [III-012] the same measures were 38 nM and 21 nM.
For the compound `COCCN1C[C@H](C(c2ccccc2)c2ccccc2)n2cc(C(=O)O)c(=O)c(O)c2C1=O` [Compound I-039], the EC50 with LCMV (setting [3]) amounted to 17 nM; in the assay on Junin virus (setting [4]), 240 nM.
For `CC(C)OCCN1C[C@H](C(c2ccccc2)c2ccccc2)n2cc(C(=O)O)c(=O)c(O)c2C1=O` [Compound I-035] the same measures were less than 6 nM and 71 nM.
The matching figures for `CCCC(C)N1C[C@H](C(c2ccccc2)c2ccccc2)n2cc(C(=O)O)c(=O)c(O)c2C1=O` (some centres unmarked) [Compound I-031]: 20 nM and 45 nM.
The matching figures for `COCCN1CN(C2c3ccccc3CCc3ccccc32)n2cc(C(=O)O)c(=O)c(O)c2C1=O` [Compound I-079]: 5.3 nM and 5 nM.
On to `Cc1ccc2c(c1)CCc1cc(C)ccc1C2N1CN(C(C)C)C(=O)c2c(O)c(=O)c(C(=O)O)cn21` [Compound I-076], for which the EC50 with LCMV (setting [3]) amounted to 13 nM; with Junin virus (setting [4]), 34 nM.
The matching figures for `CC(C)N1CN(C2c3ccccc3C3C(c4ccccc42)C3(F)F)n2cc(C(=O)O)c(=O)c(O)c2C1=O` (single isomer, unassigned) [III-010]: 9.9 nM and 10 nM.
The matching figures for `COc1ccc(CN2CN(C3c4ccccc4CCc4ccccc43)n3cc(C(=O)O)c(=O)c(O)c3C2=O)cc1` [III-008]: 19 nM and 14 nM.
The matching figures for `O=C(O)c1cn2c(c(O)c1=O)C(=O)N(Cc1cccnc1)C[C@@H]2C(c1ccccc1)c1ccccc1` [Compound I-030]: 31 nM and 44 nM.
As for `C[C@@H](N1CN([C@H]2c3ccccc3CSc3ccccc32)n2cc(C(=O)O)c(=O)c(O)c2C1=O)C(F)(F)F` [Compound I-004], the EC50 in the assay on LCMV (setting [3]) amounted to 12 nM; in the assay with Junin virus (setting [4]), 15 nM.
For `O=C(O)c1cn2c(c(O)c1=O)C(=O)N1CCCO[C@@H]1[C@@H]2Cc1ccccc1` [Compound I-054] the same measures were 1960 nM and 1620 nM.
The matching figures for `O=C(O)c1cn2c(c(O)c1=O)C(=O)N(C[C@@H]1CCCO1)CN2C1c2ccccc2CCc2ccccc21` [II-002]: 7.1 nM and 12 nM.
